Results published in PubChem BioAssay (NCI).
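Growth conditions: 96-well plates. Treatment: test compound, 48 hours, 5 concentrations. Analysis: linear interpolation between bracketing concentrations; unreached endpoints set to highest concentration. TGI denotes the concentration required for complete inhibition of growth.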

Key:
Test in all cases: growth of human tumour cells (NCI), 48 h
HOP-92 NSCLC = test system: HOP-92 NSCLC
UACC-257 melanoma = test system: UACC-257 melanoma
SW-620 colon = test system: SW-620 colon
PC-3 prostate = test system: PC-3 prostate
MOLT-4 leukemia = test system: MOLT-4 leukemia
HCT-15 colon = test system: HCT-15 colon
MDA-MB-435 = test system: MDA-MB-435
SN12C renal = test system: SN12C renal
KM12 colon = test system: KM12 colon
HL-60(TB) leukemia = test system: HL-60(TB) leukemia
HCT-116 colon = test system: HCT-116 colon
UACC-62 melanoma = test system: UACC-62 melanoma
TK-10 renal = test system: TK-10 renal
UO-31 renal = test system: UO-31 renal
NCI-H522 lung = test system: NCI-H522 lung
NCI-H226 lung = test system: NCI-H226 lung
RXF 393 renal = test system: RXF 393 renal
HT29 colon = test system: HT29 colon
HCC-2998 colon = test system: HCC-2998 colon
U251 CNS = test system: U251 CNS
NCI-H460 lung = test system: NCI-H460 lung
A549 NSCLC = test system: A549 NSCLC
SK-MEL-28 melanoma = test system: SK-MEL-28 melanoma
K-562 leukemia = test system: K-562 leukemia
EKVX NSCLC = test system: EKVX NSCLC
OVCAR-4 ovarian = test system: OVCAR-4 ovarian
IGROV1 ovarian = test system: IGROV1 ovarian
A498 renal = test system: A498 renal
COLO 205 colon = test system: COLO 205 colon
NCI/ADR-RES ovarian = test system: NCI/ADR-RES ovarian
SNB-75 CNS = test system: SNB-75 CNS
NCI-H23 lung = test system: NCI-H23 lung
SF-295 CNS = test system: SF-295 CNS
OVCAR-3 ovarian = test system: OVCAR-3 ovarian
HS 578T breast = test system: HS 578T breast
SR leukemia = test system: SR leukemia
T-47D breast = test system: T-47D breast
SK-MEL-2 melanoma = test system: SK-MEL-2 melanoma
786-0 renal = test system: 786-0 renal
CAKI-1 renal = test system: CAKI-1 renal
MDA-MB-231 breast = test system: MDA-MB-231 breast
SK-MEL-5 melanoma = test system: SK-MEL-5 melanoma
ACHN renal = test system: ACHN renal
HOP-62 NSCLC = test system: HOP-62 NSCLC
SK-OV-3 ovarian = test system: SK-OV-3 ovarian
BT-549 breast = test system: BT-549 breast
SNB-19 CNS = test system: SNB-19 CNS
MCF7 breast = test system: MCF7 breast
M14 melanoma = test system: M14 melanoma
SF-539 CNS = test system: SF-539 CNS
RPMI-8226 leukemia = test system: RPMI-8226 leukemia
OVCAR-8 ovarian = test system: OVCAR-8 ovarian
SF-268 CNS = test system: SF-268 CNS
OVCAR-5 ovarian = test system: OVCAR-5 ovarian
DU-145 prostate = test system: DU-145 prostate
CCRF-CEM leukemia = test system: CCRF-CEM leukemia

Measured: TGI

O=C(Cc1ccccc1CCO)NCCc1ccccc1
> 100 µM: HOP-92 NSCLC | UACC-257 melanoma | SW-620 colon | PC-3 prostate | MOLT-4 leukemia | HCT-15 colon | MDA-MB-435 | SN12C renal | KM12 colon | HL-60(TB) leukemia | HCT-116 colon | UACC-62 melanoma | TK-10 renal | UO-31 renal | NCI-H522 lung | NCI-H226 lung | RXF 393 renal | HT29 colon | HCC-2998 colon | U251 CNS | NCI-H460 lung | A549 NSCLC | SK-MEL-28 melanoma | K-562 leukemia | EKVX NSCLC | OVCAR-4 ovarian | IGROV1 ovarian | A498 renal | COLO 205 colon | NCI/ADR-RES ovarian | SNB-75 CNS | NCI-H23 lung | SF-295 CNS | OVCAR-3 ovarian | HS 578T breast | SR leukemia | T-47D breast | SK-MEL-2 melanoma | 786-0 renal | CAKI-1 renal | MDA-MB-231 breast | SK-MEL-5 melanoma | ACHN renal | HOP-62 NSCLC | SK-OV-3 ovarian | BT-549 breast | SNB-19 CNS | MCF7 breast | M14 melanoma | SF-539 CNS | RPMI-8226 leukemia | OVCAR-8 ovarian | SF-268 CNS | OVCAR-5 ovarian | DU-145 prostate | CCRF-CEM leukemia
